{"source": "the supplement of paper PMC10307832", "assay_in_all_cases": "relative viability (nuclei count vs DMSO), 5 days (fraction); higher = more cells survive", "key": {"201T": {"system": "201T", "outline": "(§1)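 For relative viability, nuclei counts in treated wells were divided by those in vehicle wells. Lung cancer cell lines had been pin-tool dosed in 1536-well plates the day after seeding and cultured for 5 days, then fixed and stained in one step (final 0.05% Triton X-100, 1% formaldehyde, 1 ug/ml Hoechst) and imaged at 4×. Doses were one drug alone or a fixed anchor-drug dose plus five library-drug doses (not always all listed) in √10 steps, and values are duplicate-plate medians.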"}, "A-427": {"system": "A-427", "outline": "as §1"}, "BEN": {"system": "BEN", "outline": "as §1"}, "CAL-12T": {"system": "CAL-12T", "outline": "as §1"}, "H3255": {"system": "H3255", "outline": "as §1"}, "LC-2-ad": {"system": "LC-2-ad", "outline": "as §1"}, "LCLC-97TM1": {"system": "LCLC-97TM1", "outline": "as §1"}, "NCI-H1650": {"system": "NCI-H1650", "outline": "as §1"}, "NCI-H1651": {"system": "NCI-H1651", "outline": "as §1"}, "NCI-H1915": {"system": "NCI-H1915", "outline": "as §1"}, "NCI-H1944": {"system": "NCI-H1944", "outline": "as §1"}}, "data": [{"smiles": "CCN(CC)CCCCNc1ncc2cc(-c3cc(OC)cc(OC)c3)c(NC(=O)NC(C)(C)C)nc2n1", "note": "+ CC(=O)Nc1cccc(-n2c(=O)n(C3CC3)c(=O)c3c(Nc4ccc(I)cc4F)n(C)c(=O)c(C)c32)c1 [Trametinib] (partner 0.02 µM)", "values": [{"measurement": "relative viability", "setting": "201T; first compound 0.01 µM", "value": 0.716}, {"measurement": "relative viability", "setting": "201T; first compound 0.03162 µM", "value": 0.725}, {"measurement": "relative viability", "setting": "201T; first compound 0.1 µM", "value": 0.742}, {"measurement": "relative viability", "setting": "201T; first compound 0.3162 µM", "value": 0.742}, {"measurement": "relative viability", "setting": "201T; first compound 1 µM", "value": 0.605}, {"measurement": "relative viability", "setting": "A-427; first compound 0.01 µM", "value": 0.784}, {"measurement": "relative viability", "setting": "A-427; first compound 0.03162 µM", "value": 0.68}, {"measurement": "relative viability", "setting": "A-427; first compound 0.1 µM", "value": 0.694}, {"measurement": "relative viability", "setting": "A-427; first compound 0.3162 µM", "value": 0.595}, {"measurement": "relative viability", "setting": "A-427; first compound 1 µM", "value": 0.466}, {"measurement": "relative viability", "setting": "BEN; first compound 0.01 µM", "value": 1.15}, {"measurement": "relative viability", "setting": "BEN; first compound 0.03162 µM", "value": 0.797}, {"measurement": "relative viability", "setting": "BEN; first compound 0.1 µM", "value": 0.978}, {"measurement": "relative viability", "setting": "BEN; first compound 0.3162 µM", "value": 1.09}, {"measurement": "relative viability", "setting": "BEN; first compound 1 µM", "value": 0.888}, {"measurement": "relative viability", "setting": "CAL-12T; first compound 0.01 µM", "value": 0.3}, {"measurement": "relative viability", "setting": "CAL-12T; first compound 0.03162 µM", "value": 0.338}, {"measurement": "relative viability", "setting": "CAL-12T; first compound 0.1 µM", "value": 0.372}, {"measurement": "relative viability", "setting": "CAL-12T; first compound 0.3162 µM", "value": 0.261}, {"measurement": "relative viability", "setting": "CAL-12T; first compound 1 µM", "value": 0.333}, {"measurement": "relative viability", "setting": "H3255; first compound 0.01 µM", "value": 0.627}, {"measurement": "relative viability", "setting": "H3255; first compound 0.1 µM", "value": 0.596}, {"measurement": "relative viability", "setting": "H3255; first compound 0.3162 µM", "value": 0.711}, {"measurement": "relative viability", "setting": "H3255; first compound 1 µM", "value": 0.566}, {"measurement": "relative viability", "setting": "LC-2-ad; first compound 0.01 µM", "value": 0.874}, {"measurement": "relative viability", "setting": "LC-2-ad; first compound 0.03162 µM", "value": 1.02}, {"measurement": "relative viability", "setting": "LC-2-ad; first compound 0.1 µM", "value": 0.992}, {"measurement": "relative viability", "setting": "LC-2-ad; first compound 0.3162 µM", "value": 0.967}, {"measurement": "relative viability", "setting": "LC-2-ad; first compound 1 µM", "value": 0.841}, {"measurement": "relative viability", "setting": "LCLC-97TM1; first compound 0.01 µM", "value": 0.161}, {"measurement": "relative viability", "setting": "LCLC-97TM1; first compound 0.03162 µM", "value": 0.189}, {"measurement": "relative viability", "setting": "LCLC-97TM1; first compound 0.1 µM", "value": 0.216}, {"measurement": "relative viability", "setting": "LCLC-97TM1; first compound 0.3162 µM", "value": 0.168}, {"measurement": "relative viability", "setting": "LCLC-97TM1; first compound 1 µM", "value": 0.185}, {"measurement": "relative viability", "setting": "NCI-H1650; first compound 0.01 µM", "value": 0.695}, {"measurement": "relative viability", "setting": "NCI-H1650; first compound 0.03162 µM", "value": 0.564}, {"measurement": "relative viability", "setting": "NCI-H1650; first compound 0.1 µM", "value": 0.783}, {"measurement": "relative viability", "setting": "NCI-H1650; first compound 0.3162 µM", "value": 0.598}, {"measurement": "relative viability", "setting": "NCI-H1650; first compound 1 µM", "value": 0.457}, {"measurement": "relative viability", "setting": "NCI-H1651; first compound 0.01 µM", "value": 0.863}, {"measurement": "relative viability", "setting": "NCI-H1651; first compound 0.03162 µM", "value": 0.802}, {"measurement": "relative viability", "setting": "NCI-H1651; first compound 0.1 µM", "value": 0.842}, {"measurement": "relative viability", "setting": "NCI-H1651; first compound 0.3162 µM", "value": 0.836}, {"measurement": "relative viability", "setting": "NCI-H1651; first compound 1 µM", "value": 0.806}, {"measurement": "relative viability", "setting": "NCI-H1915; first compound 0.01 µM", "value": 0.303}, {"measurement": "relative viability", "setting": "NCI-H1915; first compound 0.03162 µM", "value": 0.294}, {"measurement": "relative viability", "setting": "NCI-H1915; first compound 0.1 µM", "value": 0.33}, {"measurement": "relative viability", "setting": "NCI-H1915; first compound 0.3162 µM", "value": 0.249}, {"measurement": "relative viability", "setting": "NCI-H1915; first compound 1 µM", "value": 0.233}, {"measurement": "relative viability", "setting": "NCI-H1944; first compound 0.01 µM", "value": 0.428}, {"measurement": "relative viability", "setting": "NCI-H1944; first compound 0.03162 µM", "value": 0.398}]}]}
